Several values for one entry are separate records, joined by “and”; a condition that tells them apart may be missing. Equal entries are not always repeated.
Key:
[1] = Ex vivo biodistribution of 177Lu-complexes in Wistar rats; settings: for Biodistribution of radioactivity, Adipose tissue / Biodistribution of radioactivity, Adrenal gland / Biodistribution of radioactivity, Blood / Biodistribution of radioactivity, Brain / Biodistribution of radioactivity, Femur / Biodistribution of radioactivity, Harderian gland / Biodistribution of radioactivity, Heart / Biodistribution of radioactivity, Kidneys / Biodistribution of radioactivity, Liver / Biodistribution of radioactivity, Lung / Biodistribution of radioactivity, Muscle / Biodistribution of radioactivity, Pancreas / Biodistribution of radioactivity, Spleen / Biodistribution of radioactivity, Testes / Biodistribution of radioactivity, Thymus: i.v.
Excerpt: (§1) The experiments were realized corresponding to the German animal welfare regulations and institutional guidelines and with the permission of the local animal research committee at the Landesdirektion, Dresden. All experimental procedures are following the guidelines of the European Convention for the Protection of Vertebrate Animals used for Experimental and other Scientific Purposes (ETS No. 123). Male Wistar rats weighing 157.69 ± 17.10 g (mean ± SD, N = 35) were purchased from Unilever (HsdCpb:WU, Harlan Winkelmann, Borchen, Germany). Anesthetization was initiated and maintained by desflurane, and animals were put in the supine position and placed on a heating pad to maintain body temperature. A needle catheter was used for administration of the tracers in the tail vein. A second catheter was introduced into the right femoral artery for the extraction of blood samples for metabolite analysis, which was routinely done during SPECT/CT measurements.
The male Wistar rats received a short-term anesthetization by desflurane inhalation. Mean activities of 2.36 ± 0.27 MBq/kg of the ^177Lu-labelled tracers in isotonic saline were injected in a volume of 0.5 mL in the tail vein, with the following specific details: [^177Lu]citrate: 2.56 ± 0.07 MBq/kg, 128.58 body weight (BW, g), n = 4 (g); [^177Lu]BPAMD: 2.33 ± 0.11 MBq/kg, 159.41 BW (g), n = 4 (g); [^177Lu]BPAPD: 2.58 ± 0.24 MBq/kg, 156.38 BW (g), n = 4 (g); [^177Lu]BPPED: 2.27 ± 0.25 MBq/kg, 153.43 BW (g), n = 4 (g); [^177Lu]NO2AP^BP: 2.52 ± 0.25 MBq/kg, 173.82 BW (g), n = 4 (g); [^177Lu]DOTA(M^BP)2: 1.80 ± 0.10 MBq/kg, 181.64 BW (g), n = 4 (g); [^177Lu]DO2A(P^BP)2: 2.46 ± 0.15 MBq/kg, 150.60 BW (g), n = 4 (g). The compounds [^177Lu]DOTA(M^BP)2, [^177Lu]BPPED, and [^177Lu]BPAMD were further chosen for a biodistribution study after 8 days p.i. A mean activity of 19.0 ± 2.5 MBq/kg was injected. Animals were sacrificed after 5 min, 60 min, and 8 days p.i. Organs of interest were excised rapidly and weighed, and the ^177Lu activity was determined with a Wallac WIZARD automatic gamma counter (PerkinElmer, Germany) and decay corrected. The distribution data are expressed in %ID or are normalized to the BW as standard uptake value (SUV), which was calculated with the formula: SUV = (activity per g tissue)/(injected activity) × BW. The skeleton weight was calculated using the following: skeleton weight = 9.66 + 0.0355 × BW, and the total activities associated with the skeleton were calculated by using the activity concentration in the femur and the total skeleton weight.

[2] = Metabolite analysis and in vivo stability, arterial blood and urine samples; set-up: species or system Wistar rats
Excerpt: as §1
Arterial blood plasma samples were taken during SPECT/CT examinations after 1, 3, 5, 10, 20, 30, 60, and 120 min. p.i., and the in vivo metabolism of [^177Lu]BPAMD, [^177Lu]BPAPD, [^177Lu]BPPED, [^177Lu]NO2AP^BP, [^177Lu]DOTA(M^BP)2, and [^177Lu]DO2A(P^BP)2 was analyzed. Plasma was separated by centrifugation (3 min, 11,000×g) followed by precipitation of the plasma proteins with ice-cold methanol (1.5 parts per 1 part plasma) and centrifugation (3 min, 11,000×g). The supernatants were analyzed by radio-TLC and HPLC using the abovementioned methods for quality control. Additionally, urine samples were treated in the same way prior radio-TLC and radio-HPLC analysis.

[3] = 5 min p.i., mean of four animals
[4] = 60 min p.i., mean of four animals
[5] = 8 days p.i., mean for five animals

O=C(O)CN1CCN(CC(=O)O)CCN(CP(=O)(O)CC(P(=O)(O)O)P(=O)(O)O)CCN(CC(=O)O)CC1 [[^177Lu]BPPED, metal not drawn]
Ratio Bone/Adipose tissue ([1]; 5 min p.i.): 17.3 | Ratio Bone/Adrenal gland ([1]; 5 min p.i.): 5.9 | Ratio Bone/Blood ([1]; 5 min p.i.): 3.2 | Ratio Bone/Brain ([1]; 5 min p.i.): 104.0 | Ratio Bone/Harderian gland ([1]; 5 min p.i.): 10.4 | Ratio Bone/Heart ([1]; 5 min p.i.): 8.0 | Ratio Bone/Kidneys ([1]; 5 min p.i.): 1.3 | Ratio Bone/Liver ([1]; 5 min p.i.): 8.7 | Ratio Bone/Lung ([1]; 5 min p.i.): 5.5 | Ratio Bone/Muscle ([1]; 5 min p.i.): 17.3 | Ratio Bone/Pancreas ([1]; 5 min p.i.): 11.2 | Ratio Bone/Spleen ([1]; 5 min p.i.): 10.7 | Ratio Bone/Testes ([1]; 5 min p.i.): 11.6 | Ratio Bone/Thymus ([1]; 5 min p.i.): 10.9 | Biodistribution of radioactivity, Adipose tissue [1, 3]: 0.24 SUV | Biodistribution of radioactivity, Adrenal gland [1, 3]: 0.70 SUV | Biodistribution of radioactivity, Blood [1, 3]: 1.30 SUV | Biodistribution of radioactivity, Brain [1, 3]: 0.04 SUV | Biodistribution of radioactivity, Femur [1, 3]: 4.16 SUV | Biodistribution of radioactivity, Harderian gland [1, 3]: 0.40 SUV | Biodistribution of radioactivity, Heart [1, 3]: 0.52 SUV | Biodistribution of radioactivity, Kidneys [1, 3]: 3.09 SUV | Biodistribution of radioactivity, Liver [1, 3]: 0.48 SUV | Biodistribution of radioactivity, Lung [1, 3]: 0.75 SUV | Biodistribution of radioactivity, Muscle [1, 3]: 0.24 SUV | Biodistribution of radioactivity, Pancreas [1, 3]: 0.37 SUV | Biodistribution of radioactivity, Spleen [1, 3]: 0.39 SUV | Biodistribution of radioactivity, Testes [1, 3]: 0.36 SUV | Biodistribution of radioactivity, Thymus [1, 3]: 0.38 SUV | Ratio Bone/Adipose tissue ([1]; 60 min p.i.): 269.7 | Ratio Bone/Adrenal gland ([1]; 60 min p.i.): 72.5 | Ratio Bone/Blood ([1]; 60 min p.i.): 92.9 | Ratio Bone/Brain ([1]; 60 min p.i.): 419.9 | Ratio Bone/Harderian gland ([1]; 60 min p.i.): 36.4 | Ratio Bone/Heart ([1]; 60 min p.i.): 141.1 | Ratio Bone/Kidneys ([1]; 60 min p.i.): 14.9 | Ratio Bone/Liver ([1]; 60 min p.i.): 42.3 | Ratio Bone/Lung ([1]; 60 min p.i.): 67.5 | Ratio Bone/Muscle ([1]; 60 min p.i.): 355.8 | Ratio Bone/Pancreas ([1]; 60 min p.i.): 181.6 | Ratio Bone/Spleen ([1]; 60 min p.i.): 41.0 | Ratio Bone/Testes ([1]; 60 min p.i.): 185.1 | Ratio Bone/Thymus ([1]; 60 min p.i.): 212.0 | Biodistribution of radioactivity, Adipose tissue [1, 4]: 0.02 SUV | Biodistribution of radioactivity, Adrenal gland [1, 4]: 0.08 SUV | Biodistribution of radioactivity, Blood [1, 4]: 0.06 SUV | Biodistribution of radioactivity, Brain [1, 4]: 0.01 SUV | Biodistribution of radioactivity, Femur [1, 4]: 5.67 ± 0.10 SUV and 5.67 SUV | Biodistribution of radioactivity, Harderian gland [1, 4]: 0.16 SUV | Biodistribution of radioactivity, Heart [1, 4]: 0.04 SUV | Biodistribution of radioactivity, Kidneys [1, 4]: 0.38 SUV | Biodistribution of radioactivity, Liver [1, 4]: 0.13 SUV | Biodistribution of radioactivity, Lung [1, 4]: 0.08 SUV | Biodistribution of radioactivity, Muscle [1, 4]: 0.02 SUV | Biodistribution of radioactivity, Pancreas [1, 4]: 0.03 SUV | Biodistribution of radioactivity, Spleen [1, 4]: 0.14 SUV | Biodistribution of radioactivity, Testes [1, 4]: 0.03 SUV | Biodistribution of radioactivity, Thymus [1, 4]: 0.03 SUV | Ratio Bone/Adipose tissue ([1]; 8 days p.i.): 1231 | Ratio Bone/Adrenal gland ([1]; 8 days p.i.): 159 | Ratio Bone/Blood ([1]; 8 days p.i.): 5123 | Ratio Bone/Brain ([1]; 8 days p.i.): 365 | Ratio Bone/Harderian gland ([1]; 8 days p.i.): 46 | Ratio Bone/Heart ([1]; 8 days p.i.): 653 | Ratio Bone/Kidneys ([1]; 8 days p.i.): 59 | Ratio Bone/Liver ([1]; 8 days p.i.): 189 | Ratio Bone/Lung ([1]; 8 days p.i.): 637 | Ratio Bone/Muscle ([1]; 8 days p.i.): 192 | Ratio Bone/Pancreas ([1]; 8 days p.i.): 1104 | Ratio Bone/Spleen ([1]; 8 days p.i.): 246 | Ratio Bone/Testes ([1]; 8 days p.i.): 1214 | Ratio Bone/Thymus ([1]; 8 days p.i.): 933 | Biodistribution of radioactivity, Adipose tissue [1, 5]: 0.004 SUV | Biodistribution of radioactivity, Adrenal gland [1, 5]: 0.033 SUV | Biodistribution of radioactivity, Blood [1, 5]: 0.001 SUV | Biodistribution of radioactivity, Brain [1, 5]: 0.014 SUV | Biodistribution of radioactivity, Femur [1, 5]: 5.197 SUV | Biodistribution of radioactivity, Harderian gland [1, 5]: 0.113 SUV | Biodistribution of radioactivity, Heart [1, 5]: 0.008 SUV | Biodistribution of radioactivity, Kidneys [1, 5]: 0.088 SUV | Biodistribution of radioactivity, Liver [1, 5]: 0.027 SUV | Biodistribution of radioactivity, Lung [1, 5]: 0.008 SUV | Biodistribution of radioactivity, Muscle [1, 5]: 0.027 SUV | Biodistribution of radioactivity, Pancreas [1, 5]: 0.005 SUV | Biodistribution of radioactivity, Spleen [1, 5]: 0.021 SUV | Biodistribution of radioactivity, Testes [1, 5]: 0.004 SUV | Biodistribution of radioactivity, Thymus [1, 5]: 0.006 SUV | Total skeletal retention ([1]; 8 days p.i., calculated from femur activity concentration and total skeleton weight): constant over 8 days | Total skeleton retention ([1]; after 60 min, calculated from femur activity concentration and total skeleton weight): 56.3 ± 6.7 %ID | Blood half-life of the slow component (t1/2(β)) ([2]; arterial blood, single intravenous injection): 18.7 min | Metabolization in blood samples (radio-HPLC and TLC) ([2]; within a period of 120 min): no evidence of any metabolization
